Several values for one entry are separate records, joined by “and”; a condition that tells them apart may be missing. Equal entries are not always repeated. Where two headings read alike, the source gives them in different places.
Biological target: T1, GLUT1 (Homo sapiens, UniProt P11166)
T1 sequence (P11166 1-492): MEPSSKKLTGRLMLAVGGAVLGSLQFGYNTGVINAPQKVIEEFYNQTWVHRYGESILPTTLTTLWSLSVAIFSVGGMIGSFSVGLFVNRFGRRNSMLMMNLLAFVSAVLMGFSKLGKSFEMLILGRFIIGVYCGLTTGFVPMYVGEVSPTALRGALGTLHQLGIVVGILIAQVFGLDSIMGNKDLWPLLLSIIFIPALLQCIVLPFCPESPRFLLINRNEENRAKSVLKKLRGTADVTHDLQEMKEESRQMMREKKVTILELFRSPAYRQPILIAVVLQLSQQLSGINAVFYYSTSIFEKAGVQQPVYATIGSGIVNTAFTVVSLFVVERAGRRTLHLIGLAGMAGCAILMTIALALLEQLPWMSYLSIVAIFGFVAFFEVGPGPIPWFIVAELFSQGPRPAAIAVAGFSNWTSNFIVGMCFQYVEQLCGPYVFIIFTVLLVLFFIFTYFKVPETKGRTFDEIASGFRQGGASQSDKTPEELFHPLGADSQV
Type: binding
Details: for β (cooperativity parameter, second inhibitor molecule) / γ (hetero-cooperativity parameter) / Inhibition (type of modulation of CB binding) / Ki: 50 nM [3H]-CB; for β (cooperativity parameter, second inhibitor molecule) / γ (hetero-cooperativity parameter) / Ki: 4°C; for β (cooperativity parameter, second inhibitor molecule) / γ (hetero-cooperativity parameter): eqn 6; for Inhibition (type of modulation of CB binding): competing ligand 0 to 100 μM; for ΔG°: calculated as RT ln(1/KI); for ΔΔG°: change in ΔG° relative to baseline cytochalasin or forskolin; for β*γ: product; for Kd: rounded values; for Ki: eqn 6, iterative free [I]

[1] = read-out: KL (Table 3, taken from Table 1), forskolins
[2] = read-out: Ki (affinity of unoccupied GLUT1 for ligand)
[3] = read-out: KL (Table 2, taken from Table 1), cytochalasins

Structure (SMILES)	β (cooperativity parameter, second inhibitor molecule)	γ (hetero-cooperativity parameter)	Inhibition (type of modulation of CB binding)	ΔG° [kcal/mol]	ΔΔG° [kcal/mol]	β*γ	Kd [1] [nM]	Ki [2] [nM]	also measured
C=C[C@@]1(C)CC(=O)[C@]2(O)[C@@]3(C)[C@@H](O)CCC(C)(C)[C@@H]3[C@H](O)[C@H](OC(=O)CF)[C@@]2(C)O1 [7FAFSK, 7-fluoroacetyl-forskolin]	45.3 ± 5.0	0.475 ± 0.010	2	-7.86	-0.91	22	630	629 ± 0.644	β (cooperativity parameter, second inhibitor molecule) (listed as 7FA-FSK): 45; γ (hetero-cooperativity parameter) (listed as 7FA-FSK): 0.48
CC[C@@]1(C)CC(=O)[C@@]2(O)[C@]3(C)[C@H](O)CCC(C)(C)[C@H]3[C@@H](O)[C@@H](OC(C)=O)[C@]2(C)O1 [14.15DiHFSK, 14,15-dihydro-forskolin]	242.7 ± 140	0.571 ± 0.015	1	-9.55	-2.60	139	30	29.1 ± 17	β (cooperativity parameter, second inhibitor molecule) (listed as 14,15DiH-FSK): 243; γ (hetero-cooperativity parameter) (listed as 14,15DiH-FSK): 0.6
C=C1[C@@H](C)[C@H]2[C@H](Cc3ccccc3)NC(=O)[C@]23[C@H](OC(C)=O)/C=C/[C@](C)(O)C[C@@H](C)C/C=C/[C@H]3[C@@H]1O [CCH, Cytochalasin H]	249 ± 45	0.449 ± 0.019	2	-8.88	0.00	110	–	98 ± 3	β (cooperativity parameter, second inhibitor molecule) (listed as CH): 249; γ (hetero-cooperativity parameter) (listed as CH): 0.45; Kd [3]: 100 nM
C=C[C@@]1(C)CC(=O)[C@]2(O)[C@@]3(C)[C@@H](OC(C)=O)CCC(C)(C)[C@@H]3[C@H](O)[C@H](OC(C)=O)[C@@]2(C)O1 [1AFSK, 1-acetyl-forskolin]	11923 ± 8441	0.440 ± 0.008	2	-10.80	-3.85	5246	3	3 ± 2	β (cooperativity parameter, second inhibitor molecule) (listed as 1A-FSK): 11923; γ (hetero-cooperativity parameter) (listed as 1A-FSK): 0.44
C=C1[C@@H](C)[C@H]2[C@H](Cc3ccccc3)NC(=O)[C@]23OC(=O)/C=C/C(=O)CCC[C@@H](C)C/C=C/[C@H]3[C@@H]1O [CCA, Cytochalasin A]	1.11 ± 0.17	0.374 ± 0.052	2	-7.72	1.17	0.42	–	815 ± 96	β (cooperativity parameter, second inhibitor molecule) (listed as CA): 1.11; γ (hetero-cooperativity parameter) (listed as CA): 0.38; Kd [3]: 820 nM
C=C[C@@]1(C)CC(=O)[C@]2(O)[C@@]3(C)[C@@H](O)CCC(C)(C)[C@@H]3[C@H](OC(C)=O)[C@H](O)[C@@]2(C)O1 [6A7DeAFSK, 6-acetyl, 7-deacetyl-forskolin]	–	–	5	–	–	–	–	–	–
CC(=O)O[C@@H]1/C=C\[C@@](C)(O)C(=O)[C@@H](C)C/C=C\[C@H]2[C@H](O)C(C)=C(C)[C@H]3C(Cc4ccccc4)NC(=O)[C@]132 (stereo partly shown) [CCC, Cytochalasin C]	∞	0.433 ± 0.003	4	-7.35	1.53	∞	–	1590 ± 431	γ (hetero-cooperativity parameter) (listed as CC): 0.43; Kd [3]: 1600 nM
C=C1[C@@H](C)[C@H]2[C@H](Cc3ccccc3)NC(=O)[C@]23[C@H](O)/C=C/[C@](C)(O)C[C@@H](C)C/C=C/[C@H]3[C@@H]1O [CCJ, Cytochalasin J]	6399 ± 347	0.635 ± 0.013	3	-10.04	-1.16	4063	–	12 ± 1	–
C=C[C@@]1(C)CC(=O)[C@]2(O)[C@@]3(C)[C@@H](OC(C)=O)CCC(C)(C)[C@@H]3[C@H](OC(C)=O)[C@H](OC(C)=O)[C@@]2(C)O1 [1,6DiAFSK, 1,60diacetyl-forskolin]	1480 ± 268	0.489 ± 0.017	2	–	0.67	724	11	–	β (cooperativity parameter, second inhibitor molecule) (listed as 1,6DiA-FSK): 1500; γ (hetero-cooperativity parameter) (listed as 1,6DiA-FSK): 0.49
C=C[C@@]1(C)CC(=O)[C@H]2[C@](C)(O1)[C@@H](OC(C)=O)[C@@H](O)[C@H]1C(C)(C)CC[C@H](O)[C@@]12C [9DOFSK, 9-deoxy-forskolin]	120.3 ± 12.3	0.464 ± 0.016	2	-8.07	-1.12	56	430	430 ± 75	β (cooperativity parameter, second inhibitor molecule) (listed as 9DeO-FSK): 120; γ (hetero-cooperativity parameter) (listed as 9DeO-FSK): 0.46
C=C[C@@]1(C)CC(=O)[C@]2(O)[C@@]3(C)CCCC(C)(C)[C@@H]3[C@H](O)[C@H](OC(C)=O)[C@@]2(C)O1 [1DOFSK, 1-deoxy-forskolin]	22179 ± 5104	0.438 ± 0.017	2	-11.41	-4.46	9714	1	1 ± 0.7	β (cooperativity parameter, second inhibitor molecule) (listed as 1DO-FSK): 22,179 ± 5,104; β (cooperativity parameter, second inhibitor molecule) (listed as 1DeO-FSK): 22000; γ (hetero-cooperativity parameter) (listed as 1DeO-FSK): 0.44
C=C[C@@]1(C)CC(=O)[C@]2(O)[C@@]3(C)[C@@H](O)CCC(C)(C)[C@@H]3[C@H](O)[C@H](O)[C@@]2(C)O1 [7DeAFSK, 7-deacetyl-forskolin]	∞	0.450 ± 0.008	4	-11.02	-4.07	∞	2	2 ± 2	γ (hetero-cooperativity parameter) (listed as 7DeA-FSK): 0.45 ± 0.01 and 0.45
C=C1[C@@H](C)[C@H]2[C@H](Cc3ccccc3)NC(=O)[C@]23[C@H](OC(C)=O)/C=C/[C@@](C)(O)C(=O)[C@@H](C)C/C=C/[C@H]3[C@@H]1O [CCD, Cytochalasin D]	101 ± 61	0.557 ± 0.019	3	-7.23	1.65	51	–	–	β (cooperativity parameter, second inhibitor molecule) (listed as CD): 101; γ (hetero-cooperativity parameter) (listed as CD): 0.56; Kd (KL (Table 2, taken from Table 1), cytochalasins): 2000 nM; Ki (Ki (affinity of unoccupied GLUT1 for ligand)): 1970 ± 98 nM

From PMC3465710 (Biochemistry, 2011)
